Test results as given in patent US10093646B2, “1-pyridazin-/triazin-3-yl-piper(-azine)/idine/pyrolidine derivatives and compositions thereof for inhibiting the activity of SHP2” (Novartis AG, priority 2014, dated 2018).

Target: SHP2 (Homo sapiens (Human), UniProt Q06124)
Assay: SHP2 Allosteric Inhibition Assay (DiFMUP prompt fluorescence)
Format: biochemical
Settings: 0.5 nM SHP2 activated with 0.5 μM peptide IRS1_pY1172(dPEG8)pY1222, substrate DiFMUP
Excerpt: SHP2 Allosteric Inhibition Assay
SHP2 is allosterically activated through binding of bis-tyrosyl-phosphorylated peptides to its Src Homology 2 (SH2) domains.

Row | SMILES | IC50 [nM]
1 | Nc1nc(N2CCC3NCCC3C2)cnc1-c1cccc(Cl)c1Cl (stereo not shown) [Example 10] | 908
2 | Nc1nc(N2CC3C(N)C3C2)cnc1-c1cccc(Cl)c1Cl (stereo not shown) [Example 13] | 65
3 | C[C@]1(N)CCN(c2cnc(-c3cccc(Cl)c3Cl)c(N)n2)C[C@@H]1O [Example 16] | 93
4 | Nc1nc(N2CC3CNCC32)cnc1-c1cccc(Cl)c1Cl (stereo not shown) [Example 20] | 404
5 | Nc1nc(N2CC3CNCC3C2)cnc1-c1cccc(Cl)c1Cl (stereo not shown) [Example 21] | 102

The remaining lines, values ahead:

Row | IC50 [nM] | SMILES
6 | 65 | NCC1(c2ccccc2)CCN(c2cnc(-c3cccc(Cl)c3Cl)c(N)n2)CC1 [Example 12]
7 | 75 | CCCC1(CN)CCN(c2cnc(-c3cccc(Cl)c3Cl)c(N)n2)CC1 [Example 15]
8 | 102 | NCC1(c2ccncc2)CCN(c2cnc(-c3cccc(Cl)c3Cl)c(N)n2)CC1 [Example 17]
9 | 93 | NCC1(c2cnccn2)CCN(c2cnc(-c3cccc(Cl)c3Cl)c(N)n2)CC1 [Example 18]
10 | 110 | NCC1(c2ccccn2)CCN(c2cnc(-c3cccc(Cl)c3Cl)c(N)n2)CC1 [Example 19]
